Values quoted from earlier work, collected in PMC9306982 (Journal of Food and Drug Analysis, 2019).
One block for each molecule: values may come before it.

Columns and labels:
[1] = system: potassium oxonate-treated rat; details: oral administration
[2] = compared with caffeoylquinic acids
xanthine oxidase = details: for inhibitory activity against xanthine oxidase (in words): isolates from aerial part of Hyptis rhomboids

Molecule: COC(=O)C1(O)CC(O)C(OC(=O)C=Cc2ccc(O)c(O)c2)C(OC(=O)C=Cc2ccc(O)c(O)c2)C1 (centres unmarked) [methyl 4,5-dicaffeoylquinate]
hypouricemic effect (in words) [1]: good

bioavailability (in words) [2]: better
xanthine oxidase inhibitory activity (in words) (xanthine oxidase): moderate
Molecule: O=C(O)/C=C/c1ccc(O)c(O)c1 [Compound 11, caffeic acid]

inhibitory activity against xanthine oxidase (in words) (xanthine oxidase): good
Molecule: O=C(/C=C/c1ccc(O)c(O)c1)O/C=C\c1ccc(O)c(O)c1 [netpetoidin B]

inhibitory activity against xanthine oxidase (in words) (xanthine oxidase): good
Molecule: epihyprhombin B
